Earlier results in PubChem BioAssay AID1259410 (Chemical Carcinogenesis Research Information System (CCRIS), 2018).
Numbered stars: 1 amine (or outer) side, 2 acyl side, 3 side chain; on linkers, the order of the positions; unused ones are H or OH. Square brackets hold non-standard residues; d marks the D form. Peptide text beside a SMILES is read from it. X1 = O=C(C(N[*:1])c1ccc(OS(=O)(=O)O)cc1)[*:2]

Tested on: rodent tumor promotion studies, tumor incidence
Assay: CCRIS tumor promotion studies
[1] = Carcinogen: 7,12-DIMETHYLBENZ(A)ANTHRACENE, Doses [Carcinogen]: TOP, Route [Carcinogen]: DERMAL, Route [Promoter]: DERMAL, Species: MOUSE, Strain/Sex: FEMALE

In the case of `[O-][Cl+3]([O-])([O-])O`, the outcome (Carcinogen: N-bis(2-hydroxypropyl)nitrosamine, 53609-64-6, Doses [Carcinogen]: 0.08 and 0.2% in drinking water for 4 wks at 7-10 wks of age, study duration to 39 wk of age, Doses [Promoter]: In utero (0.1% in diet of dams) and then in drinking water of weaned offspring for 2 wk. Dimethylbenz[a]anthracene, 57-9, Route [Carcinogen]: Oral, Route [Promoter]: In utero and in drinking water, Species: Rat, Strain/Sex: F344/Female (23, 16/group)) is listed as “thyroid: no increase in tumors even though increased follicular cell hyperplasia” and the outcome (Carcinogen: N-bis(2-hydroxypropyl)nitrosamine, 53609-64-6, Doses [Carcinogen]: 0.08 and 0.2% in drinking water for 4 wks at 7-10 wks of age, study duration to 39 wk of age, Doses [Promoter]: In utero (0.1% in diet of dams) and then in drinking water of weaned offspring for 2 wk, Route [Carcinogen]: Oral, Route [Promoter]: In utero and in drinking water, Species: Rat, Strain/Sex: F344/Male (12-15/group)) is listed as “none found”.
For `C=C(CC(=O)OC)C(=O)OC`, the outcome (Carcinogen: N-METHYLNITROSOUREA, 684-93-5, Doses [Carcinogen]: 100 PPM IN DRINKING WATER FOR 15 WK, Doses [Promoter]: 0, 0.5% IN DRINKING WATER FOR 37 WK BEGINNING POST CARCINOGEN TREATMENT (STUDY DURATION: 52 WK), Route [Carcinogen]: ORAL, Route [Promoter]: ORAL, Species: RAT, Strain/Sex: F344/MALE) is listed as “glandular stomach: adenoma, carcinoma”.
In the case of `CNC(=O)Oc1ccccc1OC(C)C`, the outcome (Carcinogen: 7,12-DIMETHYLBENZ[A]ANTHRACENE, 57-97-6, Doses [Carcinogen]: 52 UG IN 100 µL ACETONE ONCE, Doses [Promoter]: 0, 100 MG/KG BW IN 100 µL ACETONE 3/WK FOR 51 WK BEGINNING 1/WK POST CARCINOGEN DOSE (STUDY DURATION: 52 WK), Route [Carcinogen]: DERMAL, Route [Promoter]: DERMAL, Species: MOUSE, Strain/Sex: SWISS/FEMALE) is given as “skin: tumor” and the outcome (Carcinogen: 7,12-DIMETHYLBENZ[A]ANTHRACENE, 57-97-6, Doses [Carcinogen]: 52 UG IN 100 µL ACETONE ONCE, Doses [Promoter]: 0, 100 MG/KG BW IN 100 µL ACETONE 3/WK FOR 51 WK BEGINNING 1 WK POST CARCINOGEN DOSE (STUDY DURATION: 52 WK), Route [Carcinogen]: DERMAL, Route [Promoter]: DERMAL, Species: MOUSE, Strain/Sex: SWISS/MALE) is given as “skin: tumor”.
In the case of `CCCCCCCC/C=C/CCCCCCCC(=O)OCCOCC(OCCO)C1OCC(OCCO)C1OCCO` (stereo not given), the outcome [1] is listed as “integumentary system (skin)”.
For `O=NN1CCC[C@H]1c1cccnc1`, the outcome (Carcinogen: Diethylnitrosamine, 55-18-5, Doses [Carcinogen]: 40 mg/l for 4 consecutive d/wk for 180 days, study duration 180 d, Doses [Promoter]: 30 mg/l, 3 d /wk for 180 d, study duration 180 d, Doses [Promoter]: 30 mg/l, 3 d /wk for 180 d, study duration 180 d, Route [Carcinogen]: Oral (drinking water), Route [Promoter]: Oral (drinking water), Species: Mouse, Strain/Sex: CF1/Female (16, 46/Group)) is listed as “stomach: squamous cell carcinoma (33% vs 22%); adenocarcinoma (17% vs 15%); both”.
In the case of `CC(=O)OCC(COC(C)=O)OC(C)=O`, the outcome (Carcinogen: 7,12-Dimethylbenz(a)anthracene, 57-97-6, Doses [Carcinogen]: 100 ug in 100 ul acetone once at 6 wk of age, Doses [Promoter]: 0, 85 mg, daily for 5 d/wk beginning 1 wk after carcinogen administration for 35 wk, study duration 36 wk, Route [Carcinogen]: Dermal, Route [Promoter]: Dermal, Species: Mouse, Strain/Sex: ICR/Female) is given as “skin: none” and the outcome (Carcinogen: 7,12-Dimethylbenz(a)anthracene, 57-97-6, Doses [Carcinogen]: 100 ug in 100 ul acetone once at 6 wk of age, Doses [Promoter]: 0, 85 mg, twice daily for 5 d/wk beginning 1 wk after carcinogen administration for 35 wk, study duration 36 wk, Route [Carcinogen]: Dermal, Route [Promoter]: Dermal, Species: Mouse, Strain/Sex: ICR/Female) is given as “skin: none”.
In the case of `CSCC[C@H](NC(=O)[C@H](CC(C)C)NC(=O)CNC(=O)[C@H](Cc1ccccc1)NC(=O)[C@H](Cc1ccccc1)NC(=O)[C@H](CCC(N)=O)NC(=O)[C@H](CCC(N)=O)NC(=O)[C@@H]1CCCN1C(=O)[C@H](CCCCN)NC(=O)[C@@H]1CCCN1C(=O)[C@@H](N)CCCN=C(N)N)C(N)=O`, the outcome (Carcinogen: N-METHYL-N'-NITRO-N-NITROSOGUANIDINE, 70-25-7, Doses [Carcinogen]: 50 UG/ML IN DRINKING WATER FOR 25 WK, Doses [Promoter]: 0, 12 UG/KG BW 1/2 D FOR 26 WK BEGINNING POST CARCINOGEN TREATMENT (STUDY DURATION: 52 WK), Route [Carcinogen]: ORAL, Route [Promoter]: SUBCUTANEOUS, Species: RAT, Strain/Sex: WISTAR/MALE, FEMALE) is given as “stomach: tumor”.
For `O=C1C=CC(=O)c2ccccc21`, the outcome (Carcinogen: 7,12-DIMETHYLBENZ[A]ANTHRACENE, 57-97-6, Doses [Carcinogen]: 25 NMOL IN 0.2 ML ACETONE ONCE, Doses [Promoter]: 440, 880, 1760 NMOL/MOUSE 1/WK FOR 30 WK BEGINNING 2 WK POST CARCINOGEN DOSE (STUDY DURATION: 32 WK), Doses [Promoter]: 440, 880, 1760 NMOL/MOUSE 1/WK FOR 30 WK BEGINNING 2 WK POST CARCINOGEN DOSE (STUDY DURATION: 32 WK), Route [Carcinogen]: DERMAL, Route [Promoter]: DERMAL, Species: MOUSE, Strain/Sex: SENCAR/FEMALE) is given as “skin: papilloma”.
In the case of `Cc1cccc(C)c1NC1=NCCCS1`, the outcome (Carcinogen: N-BIS(2-HYDROXYPROPYL)NITROSAMINE, 53609-64-6, Doses [Carcinogen]: 2,400 MG/KG ONCE, Doses [Promoter]: 0, 1,000 PPM IN DIET FOR 52 WK BEGINNING 1 WK POST CARCINOGEN DOSE (STUDY DURATION: 28 WK), Route [Carcinogen]: SUBCUTANEOUS, Route [Promoter]: ORAL, Species: RAT, Strain/Sex: F344/MALE) is listed as “thyroid gland: follicular cell adenoma or carcinoma”, the outcome (Carcinogen: N-NITROSOBIS(2-HYDROXYPROPYL)AMINE [53609-64-6], Doses [Carcinogen]: 2400 MG/KG IN SALINE ONCE, Doses [Promoter]: 0, 250, 500, 1000 PPM IN DIET FOR 26 WK, BEGINNING 1 WK AFTER CARCINOGEN DOSE (STUDY DURATION: 27 WK), Doses [Promoter]: 0, 250, 500, 1000 PPM IN DIET FOR 26 WK, BEGINNING 1 WK AFTER CARCINOGEN DOSE (STUDY DURATION: 27 WK), Route [Carcinogen]: SUBCUTANEOUS, Route [Promoter]: ORAL, Species: RAT, Strain/Sex: F344/MALE) is listed as “thyroid gland: follicular cell hyperplasia, follicular cell adenoma” and the outcome (Carcinogen: N-NITROSOBIS(2-HYDROXYPROPYL)AMINE, 53609-64-6, Doses [Carcinogen]: 2400 MG/KG IN SALINE ONCE, Doses [Promoter]: 0, 1,000 PPM IN FEED FOR 52 WK BEGINNING 1 WK POST CARCINOGEN TREATMENT (STUDY DURATION: 53 WK), Route [Carcinogen]: SUBCUTANEOUS, Route [Promoter]: ORAL, Species: RAT, Strain/Sex: F344/MALE) is listed as “thyroid: adenoma and carcinoma”.
In the case of `C#C[C@]1(O)CC[C@H]2[C@@H]3CCc4cc(OC)ccc4[C@H]3CC[C@@]21C`, the outcome (Carcinogen: DIETHYLNITROSAMINE, 55-18-5, Doses [Carcinogen]: 20 MG/KG IN 0.85% SALINE ONCE PRECEDED 24 HR BY 2/3 PARTIAL HEPATECTOMY, Doses [Promoter]: 0, 0.1, 0.5 PPM IN DIET FOR 12 MO BEGINNING 24 HR POST CARCINOGEN (STUDY DURATION: 12 MO), Doses [Promoter]: 0, 0.1, 0.5 PPM IN DIET FOR 12 MO BEGINNING 24 HR POST CARCINOGEN (STUDY DURATION: 12 MO), Route [Carcinogen]: INTRAPERITONEAL, Route [Promoter]: ORAL, Species: RAT, Strain/Sex: CD-1/FEMALE) is given as “liver: hepatocellular carcinoma”.
For `CCC(C)C(NC(=O)C(CCCNC(=N)N)NC(=O)C(Cc1c[nH]cn1)NC(=O)C(CO)NC(=O)C1CCCN1C(=O)C(CC(=O)O)NC(=O)C(CC(C)C)NC(=O)C(CC(N)=O)NC(=O)C(CCC(N)=O)NC(=O)C(CC(C)C)NC(=O)C(CC(N)=O)NC(=O)C(CCCCN)NC(=O)C(NC(=O)C(NC(=O)C(CO)NC(=O)C(CCSC)NC(=O)C(CCCNC(=N)N)NC(=O)CNC(=O)C(CO)NC(=O)C1CCCN1C(=O)C(C)NC(=O)C(N)CCCCN)C(C)CC)C(C)C)C(=O)NC(CO)C(=O)NC(CC(=O)O)C(=O)NC(CCCNC(=N)N)C(=O)NC(CC(=O)O)C(=O)NC(C(=O)NC(CCSC)C(=O)NCC(=O)NC(Cc1c[nH]c2ccccc12)C(=O)NC(CCSC)C(=O)NC(CC(=O)O)C(=O)NC(Cc1ccccc1)C(N)=O)c1ccc(OS(=O)(=O)O)cc1` (stereo not given) (H-KAPSGRMSIVKNLQNLDPSHRISDRD[X1]MGWMDF-NH2; configuration not given here), the outcome (Carcinogen: AZASERINE, 115-02-6, Doses [Carcinogen]: 30 MG/KG ON DAYS 19, 26, AND 54 OF AGE, Doses [Promoter]: 0, 2.5 UG/KG BW 1/D 3 D/WK FOR 8 MO BEGINNING 4 MO POST FIRST CARCINOGEN DOSE (STUDY DURATION: 8 MO), Route [Carcinogen]: INTRAPERITONEAL, Route [Promoter]: SUBCUTANEOUS, Species: RAT, Strain/Sex: WISTAR/MALE) is listed as “pancreas: adenoma” and the outcome (Carcinogen: N-NITROSOBIS(2-OXOPROPYL)AMINE, 60599-38-4, Doses [Carcinogen]: 5 MG/KG 1/WK FOR STUDY DURATION, Doses [Promoter]: 0, 30 IDU/KG 3 D/WK FOR 6 WK (STUDY DURATION: 15 WK), Route [Carcinogen]: SUBCUTANEOUS, Route [Promoter]: SUBCUTANEOUS, Species: HAMSTER, Strain/Sex: SYRIAN/MALE) is listed as “pancreas: adenocarcinoma”.
In the case of `O=c1c(O)c(-c2ccc(O)c(O)c2)oc2cc(O)cc(O)c12`, the outcome (Carcinogen: N-ETHYL-N'-NITRO-N-NITROSOGUANIDINE, 4245-77-6, Doses [Carcinogen]: 0.01% IN DRINKING WATER FOR 4 WK PRIOR TO PROMOTER DOSES, Doses [Promoter]: 2% IN DIET FOR 16 WK (STUDY DURATION: 20 WK), Route [Carcinogen]: ORAL, Route [Promoter]: ORAL, Species: MOUSE, Strain/Sex: C57BL6/MALE) is listed as “duodenum: tumor”.
In the case of `Cc1cccc(O)c1`, the outcome [1] is given as “integumentary system (skin)”.
For `O=c1cc(CO)occ1O`, the outcome (Carcinogen: N-NITROSOBIS(2-HYDROXYPROPYL)AMINE;53609-64-6, Doses [Carcinogen]: 2000 MG/KG BW ONCE, Doses [Promoter]: 0, 0.002%, 0.008%, 0.03%, 0.125%, 0.5%, 2% IN DIET FOR 20 WK BEGINNING 1 WK POST CARCINOGEN TREATMENT (STUDY DURATION: 2, Doses [Promoter]: 0, 0.002%, 0.008%, 0.03%, 0.125%, 0.5%, 2% IN DIET FOR 20 WK BEGINNING 1 WK POST CARCINOGEN TREATMENT (STUDY DURATION: 2, Route [Carcinogen]: SUBCUTANEOUS, Route [Promoter]: ORAL, Species: RAT, Strain/Sex: F344/MALE) is given as “thyroid gland: adenoma, carcinoma”.
